ChEMBL document CHEMBL1201862, “PubChem BioAssay data set” (2004)
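Grown in 96-well plates, cells were treated for 48 hours with each compound at five concentrations. Insufficient inhibition: endpoint recorded as highest concentration tested. Abbreviation: GI50, concentration required for 50% inhibition of growth.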 The source made the active and inactive calls. Cut-off read from the data, not from the text of the source: active = GI50 up to about 1.1 µM and inactive = higher.

Assays:
Assay in all cases: NCI tumour cell line growth inhibition, 48 h
NCI/ADR-RES = tested on: NCI/ADR-RES
HCT-15 = tested on: HCT-15
MDA-MB-231 = tested on: MDA-MB-231
KM12 = tested on: KM12
NCI-H23 = tested on: NCI-H23
OVCAR-3 = tested on: OVCAR-3
RXF 393 = tested on: RXF 393
CCRF-CEM = tested on: CCRF-CEM
A549 = tested on: A549
OVCAR-4 = tested on: OVCAR-4
SK-OV-3 = tested on: SK-OV-3
MCF7 = tested on: MCF7
SF-539 = tested on: SF-539
A498 = tested on: A498
UACC-62 = tested on: UACC-62
U-251 = tested on: U-251
PC-3 = tested on: PC-3
NCI-H460 = tested on: NCI-H460
Hs-578T = tested on: Hs-578T

SMILES	GI50 (NCI/ADR-RES)	GI50 (HCT-15) [µM]	GI50 (MDA-MB-231)	GI50 (KM12)	GI50 (NCI-H23)	GI50 (OVCAR-3)	GI50 (RXF 393)	GI50 (CCRF-CEM)	GI50 (A549)	GI50 (OVCAR-4)	GI50 (SK-OV-3)	GI50 (MCF7)	GI50 (SF-539)	GI50 (A498)	GI50 (UACC-62)	GI50 (U-251)	GI50 (PC-3)	GI50 (NCI-H460)	GI50 (Hs-578T)
CS(=O)(=O)N1CC(CCl)c2ccc(NO)cc21 (configuration not stated)	4.66 µM (inactive)	14.2	15.6 µM (inactive)	14.6 µM (inactive)	5.06 µM (inactive)	11.7 µM (inactive)	3.37 µM (inactive)	1.83 µM (inactive)	35.2 µM (inactive)	17.5 µM (inactive)	18.7 µM (inactive)	8.3 µM (inactive)	10.2 µM (inactive)	15.2 µM (inactive)	13.6 µM (inactive)	11.4 µM (inactive)	12 µM (inactive)	14.9 µM (inactive)	23.1 µM (inactive)
CCCCOCCOC1=C(Cl)C(=O)c2c(O)ccc(O)c2C1=O	0.614 µM (active)	0.151	0.493 µM (active)	1.83 µM (inactive)	0.42 µM (active)	0.547 µM (active)	0.227 µM (active)	0.0274 µM (active)	2.11 µM (inactive)	0.822 µM (active)	2.98 µM (inactive)	0.285 µM (active)	0.993 µM (active)	1.82 µM (inactive)	1.12 µM (active)	1.32 µM (inactive)	1.6 µM (inactive)	1.49 µM (inactive)	2.49 µM (inactive)
CC1=CC(=O)CC(C)(C)C1/C=C/C(C)=C/C=C/C(C)=C/C=C/C=C(C)/C=C/C=C(C)/C=C/C1C(C)=CC(=O)CC1(C)C (configuration not stated)	72.6 µM (inactive)	27	> 100 µM (inactive)	37.2 µM (inactive)	36.3 µM (inactive)	30.5 µM (inactive)	> 100 µM (inactive)	21.6 µM (inactive)	–	41.1 µM (inactive)	> 100 µM (inactive)	29.2 µM (inactive)	45.5 µM (inactive)	> 100 µM (inactive)	–	38.7 µM (inactive)	41.1 µM (inactive)	86.1 µM (inactive)	30.8 µM (inactive)
NNc1nncc2[nH]cnc12	> 100 µM (inactive)	> 100	> 100 µM (inactive)	> 100 µM (inactive)	> 100 µM (inactive)	> 100 µM (inactive)	> 100 µM (inactive)	> 100 µM (inactive)	> 100 µM (inactive)	–	–	> 100 µM (inactive)	> 100 µM (inactive)	> 100 µM (inactive)	> 100 µM (inactive)	> 100 µM (inactive)	> 100 µM (inactive)	> 100 µM (inactive)	> 100 µM (inactive)
Cn1c(=O)c2nc(CSCc3ccccc3)[nH]c2n(C)c1=O	> 100 µM (inactive)	> 100	> 100 µM (inactive)	> 100 µM (inactive)	> 100 µM (inactive)	> 100 µM (inactive)	> 100 µM (inactive)	–	45.6 µM (inactive)	> 100 µM (inactive)	> 100 µM (inactive)	> 100 µM (inactive)	> 100 µM (inactive)	> 100 µM (inactive)	> 100 µM (inactive)	> 100 µM (inactive)	> 100 µM (inactive)	> 100 µM (inactive)	> 100 µM (inactive)
Nc1ccc2c(c1)C(=O)c1c(F)cccc1-2	35.6 µM (inactive)	39.3	45.6 µM (inactive)	40.5 µM (inactive)	61.8 µM (inactive)	25.9 µM (inactive)	42.2 µM (inactive)	15 µM (inactive)	96.6 µM (inactive)	–	85.7 µM (inactive)	10.1 µM (inactive)	24.5 µM (inactive)	> 100 µM (inactive)	32 µM (inactive)	53.1 µM (inactive)	31.2 µM (inactive)	31 µM (inactive)	27.9 µM (inactive)
CC(=O)O[C@H]1C(=O)[C@@]2(C)[C@H]([C@H](OC(=O)c3ccccc3)[C@]3(O)C[C@H](OC(=O)[C@H](O)[C@@H](NC(=O)c4ccccc4)c4cccc(N(C)C)c4)C(C)=C1C3(C)C)[C@]1(OC(C)=O)CO[C@@H]1C[C@@H]2O	> 28.2 µM (inactive)	1.79	0.542 µM (active)	0.0198 µM (active)	0.0755 µM (active)	0.0308 µM (active)	0.221 µM (active)	0.0215 µM (active)	0.314 µM (active)	–	0.105 µM (active)	0.0164 µM (active)	0.0668 µM (active)	0.579 µM (active)	0.254 µM (active)	0.0608 µM (active)	0.209 µM (active)	0.0419 µM (active)	0.0276 µM (active)
C=CCC1(O)c2cccc(O)c2C(=O)c2c(O)cccc21	18.9 µM (inactive)	17.7	33.5 µM (inactive)	24.4 µM (inactive)	24.7 µM (inactive)	47.9 µM (inactive)	15.9 µM (inactive)	–	24 µM (inactive)	28.4 µM (inactive)	–	30.1 µM (inactive)	57.8 µM (inactive)	29 µM (inactive)	–	23.6 µM (inactive)	26 µM (inactive)	31.8 µM (inactive)	24.4 µM (inactive)
